Measurements: patent US8846627B2, “Method for treatment of malaria” (The Second Military Medical University, priority 2009, dated 2014)

Legend:
[1] = target: T1, Falcipain-2 protease (FP-2) (Plasmodium falciparum, UniProt Q8I6U4); test: SPR (Biacore 3000) binding assay with immobilised FP-2 protein; conditions: SPR screening at 1 μM and 10 μM
T1 construct: The falcipain-2 fragment was amplified by the polymerase chain reaction (PCR); His6 (N-terminal MRGS-His6 supplied by the pQE-30 vector; own knowledge of the vector, consistent with the Ni2+-NTA purification) (N); made in house; host or cells: E. coli M15
T1 sequence (Q8I6U4 244-484): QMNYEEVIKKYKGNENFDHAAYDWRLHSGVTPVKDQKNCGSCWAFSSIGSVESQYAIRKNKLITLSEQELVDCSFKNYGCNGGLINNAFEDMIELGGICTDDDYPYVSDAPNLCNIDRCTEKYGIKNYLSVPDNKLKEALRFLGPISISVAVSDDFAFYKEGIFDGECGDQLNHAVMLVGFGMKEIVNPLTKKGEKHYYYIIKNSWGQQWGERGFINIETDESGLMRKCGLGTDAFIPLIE
Text: The screening and kinetics determination of the falcipain-2 protease and tiliroside binding activity are based on SPR mechanism, which employs Biacore 3000 (Biacore AB, Uppsala, Sweden).
(1) The Construction of Falcipain-2 Plasmid (pQE30-Fal2)
Primers were designed according to the falcipain-2 cDNA sequence, utilizing the following primers, forward 5′[…]3′(SEQ ID NO. 1) and reverse 5′[…]3′ (SEQ ID NO. 2), which including two restriction sites, BamH I and SaI I The falcipain-2 fragment was amplified by the polymerase chain reaction (PCR), and the PCR product was ligated into the pQE-30 expression vector and then further verified by sequencing. This construct was transformed into E. coil M15 (Qiagen).
(2) Expression and Purification of Falcipain-2 Protein
The engineering bacteria were obtained by transforming constructed plasmid pQE30-Fal2 into the E. coli M15 cells. They were culturing in LB medium (10 g/L tryptone, 5 g/L yeast extract, 10 g/L sedium chloride) containing ampicillin […] and kanamtcin […] for overnight. Then, transfer the bacteria into fresh LB medium (1 L) containing ampicillin and kanamycin (according to 1:100) at 37° C., 220 rpm. […] Bound protein was eluted with 8M urea, 20 mM Tris-Cl, 1M imidazole, pH 8.0, and the eluted protein was analyzed by SDS-PAGE. […]

[2] = target: T1, Falcipain-2 protease (FP-2); test: Falcipain-2 protease inhibition assay (fluorescence reaction rate); format: biochemical
Protocol: (1) Expression and Purification of Falcipain-2 and Refolding of FP-2 Inclusion Bodies Protein
(2) The Determination of the Invention Compounds' Inhibitory Activity Against FP-2
FP-2 protein and test compounds dissolved in DMSO (prepared from EXAMPLES 1-4) were added to 197 μL, buffer, containing 100 mM NaOAc, 10 mM DTT, pH 5.5 (final concentration 10 μg/mL). The test compound were Stenopalustroside A, Stenopalustroside D, Tiliroside, kaempferol 3-O-β-(6″-caffeoylglucoside) and kaempferol 3-(2,4-di-E-p-coumaroyl-rhamnoside), respectively, which final concentration were 10 μM and 0 μM (as negative control). These compounds were incubated for […] and employed MD SpectraMax M5 Microplate Reader to continuous detect the RFU for 15 min, at excitation 355 nm and emission 460 nm Calculate the reaction rate Km, and obtain percentage inhibitory rate of the test compound at 10 μM by the following equation,
The equation is: (Kmof control group−Kmof experimental group)/Kmof control group×100%
Select […] compounds with over 50% inhibitory rate to detect IC50, and utilize the compound solutions prepared from EXAMPLE 1 to EXAMPLE 4, Stenopalustroside A, tiliroside kaempferol 3-O-β-(6″-caffeoylglucoside), and the experimental methods and system followed as EXAMPLE 6. According to FP-2 activity reaction rate Km with compounds at different concentrations, we can calculate the inhibitory rate of compounds against FP-2 at different concentration. The IC50 value was fitted with utilizing the Sigmoidal Equation by Origin software.

Compound: O=C(/C=C/c1ccc(O)cc1)OC[C@H]1O[C@@H](Oc2c(-c3ccc(O)cc3)oc3cc(O)cc(O)c3c2=O)[C@H](O)[C@@H](O)[C@@H]1O [Tiliroside]
- binding activity with FP-2 protein [1]: obvious binding activity
- IC50 [2]: 13.1 µM
- inhibition at 10 µM ([2]; 10 μM compound, pH 5.5): 64.4%
